The assay concerns the target T1, PPL4 (Pteria penguin, UniProt B6F0T8+B6F0T9).
T1 construct: gene PPL4-a; native, purified from mantle secretory fluid; mature 148 residues per subunit, 16 kDa; disulfide-linked heterodimer 32 kDa (head-to-head, N-terminal bond); N-termini […]; (alpha), […]; (beta)
As to the kind of experiment: hemagglutination inhibition, rabbit erythrocytes, purified lectin. It is filed as cell-based. Conditions: 0.15 M NaCl; hemagglutination titer 2^−3; 2% rabbit erythrocytes. The text has this:
hemagglutination inhibition, rabbit erythrocytes, purified lectin on PPL4

T1 sequence (B6F0T8 entry or part of it): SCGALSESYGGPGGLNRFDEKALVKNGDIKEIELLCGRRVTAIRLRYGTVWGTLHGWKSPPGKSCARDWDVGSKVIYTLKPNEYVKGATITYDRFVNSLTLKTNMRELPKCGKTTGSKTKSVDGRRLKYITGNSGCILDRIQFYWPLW
T1 sequence (B6F0T9 entry or part of it): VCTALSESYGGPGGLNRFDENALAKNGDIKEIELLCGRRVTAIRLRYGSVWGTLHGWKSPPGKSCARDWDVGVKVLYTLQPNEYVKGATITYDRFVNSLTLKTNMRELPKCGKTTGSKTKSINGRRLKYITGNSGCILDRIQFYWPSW

In turn, `OC[C@H]1O[C@H](O[C@H]2O[C@H](CO)[C@@H](O)[C@H](O)[C@H]2O)[C@H](O)[C@@H](O)[C@@H]1O` [Trehalose] registered a PPL4 of 100 mM.

On to `CC(=O)N[C@H]1C(O)O[C@H](CO)[C@@H](O)[C@@H]1O` (stereo partly drawn) [N-Acetyl-D-glucosamine], for which the PPL4 came to 6.25 mM.

`OC[C@H]1O[C@H](OC[C@H]2OC(O)[C@H](O)[C@@H](O)[C@@H]2O)[C@H](O)[C@@H](O)[C@@H]1O` (some centres unmarked) [Isomaltose] registered a PPL4 above 200 mM.

`OC[C@H]1O[C@H](O[C@H]2C(O)O[C@H](CO)[C@@H](O)[C@@H]2O)[C@H](O)[C@@H](O)[C@@H]1O` (some centres unmarked) [Kojibiose] returned a PPL4 of 100 mM.

Consider `OCC1(O)OC[C@@H](O)[C@@H](O)[C@@H]1O` (stereo partly drawn) [D-Fructose], for which the PPL3 was 50 mM.

The record behind these values is publication PMC6769917, “Glycan Binding Profiling of Jacalin-Related Lectins from the Pteria Penguin Pearl Shell” (International Journal of Molecular Sciences, 2019).
